# Activity calls are given as the source filed them.
# What was measured:
# [1] = tested on: Streptococcus; assay: Group A Streptococcus viability loss, dose response, counter-screen for streptokinase expression inhibitor project, luminescence, BacTiterGlo (AID 1915); format: functional, organism-based;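 note: potency for reduction of bacterial viability or growth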
# [2] = HIV-1 Env-mediated cell fusion inhibitors, dose response, CCR5-tropic Env (AID 2279); format: functional
# [3] = C. albicans growth with fluconazole, confirmation, fluorescence, retest (AID 2467); format: functional, cell-based
# [4] = target: 72 kDa type IV collagenase (Homo sapiens, UniProt P08253); assay: Dose Response validation of uHTS RPN11 inhibitor hits using a MMP-2 Fluorescence assay.; format: functional
# [5] = target: Prothrombin (Bos taurus, UniProt P00735); assay: thrombin inhibition, dose response, biochemical, fluorescence polarization, uHTS hits (AID 602369); format: functional
# [6] = target: 26S proteasome non-ATPase regulatory subunit 14 (Homo sapiens, UniProt O00487); assay: inhibition of proteasome subunit RPN11 – biochemical, fluorescence polarization, uHTS hits, confirmation (AID 602368); format: functional
# [7] = NIH-3T3 fibroblast cytotoxicity, dose response, cytotoxicity control, cell-based, fluorescence, Alamar Blue, secondary assay (AID 2327); format: functional;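 note: NIH-3T3 mouse fibroblasts cultured with fluconazole at 8 µg/mL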
# [8] = target: T1, Streptokinase A (Streptococcus pyogenes serotype M1, UniProt P10520); assay: S. pyogenes streptokinase expression inhibitors, potency, dose response, plasminogen activation absorbance, OD405 (AID 1914); format: functional, Streptococcus pyogenes M1 GAS;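 note: secreted streptokinase activity via plasminogen activation per viability signal from cell pellet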
# T1 sequence (P10520 whole entry): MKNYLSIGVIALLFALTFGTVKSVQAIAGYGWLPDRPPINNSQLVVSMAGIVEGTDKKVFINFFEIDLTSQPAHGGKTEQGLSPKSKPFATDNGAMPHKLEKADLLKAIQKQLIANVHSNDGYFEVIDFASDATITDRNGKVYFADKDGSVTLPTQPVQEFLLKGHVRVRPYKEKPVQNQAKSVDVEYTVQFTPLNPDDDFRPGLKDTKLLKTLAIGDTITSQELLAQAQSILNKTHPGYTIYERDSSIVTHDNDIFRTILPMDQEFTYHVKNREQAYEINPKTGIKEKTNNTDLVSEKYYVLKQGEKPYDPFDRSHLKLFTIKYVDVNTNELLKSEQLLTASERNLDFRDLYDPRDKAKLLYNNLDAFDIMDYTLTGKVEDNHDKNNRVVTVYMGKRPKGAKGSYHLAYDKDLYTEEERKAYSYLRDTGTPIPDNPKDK
# [9] = tested on: INS1; assay: beta cell apoptosis inhibitors, cytokine rescue, dose response, luminescence, retest (AID 449756); format: functional, cell-based; conditions: Rattus norvegicus;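 note: cell death triggered by IL-1 beta plus TNF-alpha plus IFN-gamma mixture; protective hits raise ATP signal compared with cytokine alone wells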
# [10] = tested on: Streptococcus sp. 'group A'; assay: growth inhibition of control SK(-) GAS strain, dose response, counter-screen for streptokinase expression inhibitor project, luminescence, kanamycin, BacTiterGlo, confirmation (AID 1900); format: functional, organism-based
# [11] = target: Lysosomal acid glucosylceramidase (Homo sapiens, UniProt P04062); assay: Dose response cell-based high throughput screening assay to identify enhancers of beta-glucosidase activity. [Related pubchem assays: 784 ]; format: functional
# [12] = target: Cytochrome P450 2D6 (Homo sapiens, UniProt P10635); assay: qHTS Assay for Inhibitors and Substrates of Cytochrome P450 2D6. [Related pubchem assays: 410 ]; format: ADME; conditions: read-out: Potency
# [13] = cells
# [14] = target: Protein-tyrosine kinase 2-beta (Homo sapiens, UniProt Q14289);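 note: potency of inhibitors of PYK2 kinase phosphorylation of poly-GT substrate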
# [15] = target: Major prion protein (Homo sapiens, UniProt P04156); format: functional, cell-based
# [16] = target: T2, Aminopeptidase N (Plasmodium falciparum FcB1/Columbia, UniProt O96935); assay: P. falciparum M1AAP inhibitors, biochemical, fluorogenic H-Leu-NHMec substrate, 1536-well (AID 1445); parameters: species or system Plasmodium falciparum 3D7, 3D7
# T2 sequence (O96935 whole entry): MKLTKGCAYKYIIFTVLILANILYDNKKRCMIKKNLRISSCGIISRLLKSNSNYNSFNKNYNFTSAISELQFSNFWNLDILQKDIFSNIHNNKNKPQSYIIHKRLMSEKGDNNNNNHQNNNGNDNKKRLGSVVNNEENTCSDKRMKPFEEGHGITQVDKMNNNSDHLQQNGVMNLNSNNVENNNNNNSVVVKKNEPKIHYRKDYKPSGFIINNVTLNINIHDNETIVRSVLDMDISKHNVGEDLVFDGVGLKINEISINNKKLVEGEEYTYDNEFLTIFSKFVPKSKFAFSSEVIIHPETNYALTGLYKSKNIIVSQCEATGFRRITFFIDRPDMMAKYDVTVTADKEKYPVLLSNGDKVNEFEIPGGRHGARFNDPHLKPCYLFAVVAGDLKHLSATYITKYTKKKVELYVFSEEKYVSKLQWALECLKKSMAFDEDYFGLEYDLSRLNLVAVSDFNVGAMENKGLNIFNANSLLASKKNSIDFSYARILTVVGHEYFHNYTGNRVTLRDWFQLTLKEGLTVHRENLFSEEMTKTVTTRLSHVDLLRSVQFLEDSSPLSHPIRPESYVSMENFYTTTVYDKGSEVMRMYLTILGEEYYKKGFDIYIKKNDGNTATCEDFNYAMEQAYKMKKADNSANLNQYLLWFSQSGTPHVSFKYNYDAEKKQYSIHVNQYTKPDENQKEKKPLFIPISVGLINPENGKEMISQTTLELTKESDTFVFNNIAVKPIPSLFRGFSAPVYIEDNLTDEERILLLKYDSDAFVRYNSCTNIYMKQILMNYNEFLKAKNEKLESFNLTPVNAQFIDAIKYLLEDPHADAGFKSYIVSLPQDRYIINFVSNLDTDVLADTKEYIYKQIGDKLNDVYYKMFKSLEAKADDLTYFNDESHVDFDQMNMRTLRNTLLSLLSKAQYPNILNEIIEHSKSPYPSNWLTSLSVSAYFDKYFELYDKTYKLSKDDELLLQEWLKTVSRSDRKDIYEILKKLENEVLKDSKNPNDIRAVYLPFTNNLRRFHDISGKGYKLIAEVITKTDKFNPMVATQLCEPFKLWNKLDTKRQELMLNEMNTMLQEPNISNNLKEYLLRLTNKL
# [17] = cytotoxicity in HPDE-C7 cells, cell-based, fluorescence, HTS (AID 430); format: functional; conditions: Homo sapiens
# [18] = cytotoxicity in KRAS-transformed pancreatic duct cells, primary screen, cell-based, fluorescence, HTS (AID 431); format: functional; conditions: Homo sapiens;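 note: cell line used: HPDE-C7K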
# [19] = tested on: Vero; assay: cells; format: functional; conditions: Chlorocebus sabaeus
# [20] = Luminescent dose response cell-based high throughput screening assay for inhibitors of the Janus kinase 2 mutant JAK2V617F. [Related pubchem assays: 1446 (Primary screen.), 1521 (Confirmation assay.), 1486 (Counter screen.)]; format: functional
# [21] = A Cell Based Secondary Assay To Explore Cytotoxicity of Compounds that Sensitize Mycobacterium Tuberculosis to Beta-Lactam Antibiotics.; format: functional
# [22] = growth suppression of PTEN-null colon cells, dose response, cell-based, HCT116 PTEN knockout (AID 1047); format: functional;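 note: HCT116 colon tumor cells with PTEN knocked out; cells exposed to compound for 60 hours before readout; potency for loss of cell viability measured by luminescence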
# [23] = HepG2 cell cytotoxicity, dose response, cytotoxicity control for Shn3 inhibitor project, CellTiter-Glo, cherry-picked (AID 624134); format: functional, cell-based
# [24] = growth suppression of beta-catenin-knockout colon cells, dose response, cell-based, HCT116, human colon tumor (AID 1045); format: functional;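 note: HCT116 colon tumor cells with beta catenin knocked out; cells exposed to compound for 60 hours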
# [25] = Shn3 3'UTR reporter inhibitors, dose response, cell-based, Clone20 osteoblasts, firefly luciferase, cherry-picked (AID 624132); format: functional;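 note: firefly luciferase luminescence from reporter carrying the Shn3 3'UTR in osteoblasts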
# [26] = control 3'UTR Renilla luciferase suppression, dose response, counter-screen for Shn3 inhibitor project, cell-based, Clone20-Shn3RL, cherry-picked (AID 624133); format: functional
# [27] = inhibitors of firefly luciferase expression or activity, dose response, H4 neuroglioma cells, luminescence (AID 1990); format: functional, cell-based
# [28] = Luminescence Cell-Based Dose Response HTS to Identify Inhibitors of 5'UTR Stem-Loop Driven Prion Protein mRNA Translation in H4 Neuroglioblastoma Cells. [Related pubchem assays: 1827 (Project Summary), 1813 (Primary HTS)]; format: functional
# [29] = cytotoxicity toward NIH3T3 fibroblasts, dose response, counter-screen, cell-based, ATP luminescence, mouse fibroblasts (AID 2010); format: functional;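 note: cells exposed to compound for about 90 hours before reading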
# [30] = cells; remark: listed apart in the source
# [31] = inhibitors of SNCA 5'UTR-driven reporter translation, confirmation, H4 neuroglioma cells, luminescence (AID 1988); format: functional, cell-based
# [32] = microbe, parasite or virus in culture; format: functional; conditions: Mycobacterium tuberculosis
# [33] = inhibitors of intracellular T. cruzi replication, confirmation, NIH3T3 host cells, beta-gal luminescence (AID 2044); format: functional, cell-based;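 note: intracellular parasites grown in NIH/3T3 mouse fibroblasts as host cells; luminescent beta-galactosidase reporter signal from transgenic T. cruzi replicating inside host cells; inhibitors lower the luminescence signal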
# [34] = target: Glyceraldehyde-3-phosphate dehydrogenase (Homo sapiens, UniProt P04406)
# [35] = target: T3, Bcl-2-related protein A1 (Mus musculus, UniProt Q07440); assay: Bfl-1 inhibitors blocking BH3 peptide binding, confirmation, biochemical, TR-FRET, mouse Bfl-1 (AID 621);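 note: TR-FRET binding of GST-Bfl-1 to FITC-labelled Bid peptide via terbium antibody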
# T3 sequence (Q07440 whole entry): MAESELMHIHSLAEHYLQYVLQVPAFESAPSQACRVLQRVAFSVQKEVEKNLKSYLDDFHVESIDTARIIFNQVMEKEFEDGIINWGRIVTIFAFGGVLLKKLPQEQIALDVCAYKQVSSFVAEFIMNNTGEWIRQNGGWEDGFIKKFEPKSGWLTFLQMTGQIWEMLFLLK
# [36] = target: T3, Bcl-2-related protein A1; assay: Bfl-1 binding inhibitors, SAR follow-up, biochemical, fluorescence polarization (AID 1070)
# [37] = target: Heat shock protein HSP 90-alpha (Homo sapiens, UniProt P07900); format: functional, organism-based
structure (smiles),measurement,setting,value
COc1cc([N+](=O)[O-])cc(/C=N/NC(=O)c2cc(-c3ccccc3)nc3ccccc23)c1O,EC50,[1],8.58 µM (active)
same,IC50,[2],31.7 µM (active)
same,EC50,[3],2.08 µM (active)
same,IC50,[4],3.79 µM (active)
same,IC50,[5],75.1 µM (active)
same,IC50,[6],22.3 µM (active)
same,EC50,[7],22.5 µM (inconclusive)
same,EC50,[8],> 150 µM (not active)
same,AC50,[9],3.63 µM (active)
same,EC50,[10],5.37 µM (active)
c1ccc(Cn2c(SCc3nc4ccccc4s3)nnc2-c2ccco2)cc1,EC50,[11],> 50 µM (not active)
CC(C)[C@@]1(NC(=O)[C@H]2C[C@H]3c4cccc5[nH]cc(c45)C[C@@H]3N(C)C2)O[C@]2(O)[C@H]3CCCN3C(=O)[C@H](Cc3ccccc3)N2C1=O,AC50,[12],31.6 µM (inconclusive)
Cc1cc(NC(=O)CSc2nc(C(C)C)nc3ccccc23)no1,IC50,[13],> 138 µM (inactive)
same,IC50,[14],> 69.5 µM (not active)
same,IC50,[15],0.936 µM (active)
COC(=O)c1ccc(O)c(Sc2cc(C(=O)OC)ccc2O)c1,IC50,[16],33.1 µM (active)
same,EC50,[17],13.6 µM (active)
same,EC50,[18],> 20 µM (not active)
Cc1cccc(NC(=O)c2ccc([N+](=O)[O-])o2)c1,CC50,[19],10 µM (active)
same,EC50,[3],1.42 µM (active)
same,IC50,[20],1.18 µM (active)
same,EC50,[7],18 µM (active)
CCOc1ccc(CCNC(=O)c2ccc3c(=O)[nH]c4c(C(=O)NC(C)C)sc(=S)n4c3c2)cc1,IC50,[2],30.1 µM (active)
Cc1cc(O)nc(N/N=C/c2c(F)c(F)c(F)c(F)c2F)n1,CC50,[21],> 40 µM (active)
Cc1cc(C)c(O)c(-c2cc(C(=O)Nc3ccc(S(=O)(=O)N4CCOCC4)cc3)[nH]n2)c1,EC50,[22],8.35 µM (active)
same,AC50,[23],19.9 µM (active)
same,EC50,[17],9.42 µM (active)
same,EC50,[18],9.32 µM (active)
same,EC50,[24],10 µM (active)
same,AC50,[25],5.48 µM (active)
same,AC50,[26],7.37 µM (active)
COc1ccc(OCC2CC3C(CCC(C)C3c3ccc(Br)cc3)C(=O)O2)cc1 (stereo not drawn),AC50,[12],7.94 µM (inconclusive)
Fc1ccc(C[n+]2c(-c3ccccc3)cc(-c3ccccc3)cc2-c2ccccc2)cc1.[O-][Cl+3]([O-])([O-])[O-],EC50,[27],11.2 µM (active)
same,EC50,[28],35.3 µM (active)
same,EC50,[29],> 60 µM (not active)
same,EC50,[30],0.053 µM (active)
same,EC50,[31],> 120 µM (not active)
same,CC50,[32],> 40 µM (active)
same,EC50,[33],< 0.1 µM (active)
same,AC50,[9],2.98 µM (active)
CCOC(=O)CS(=O)(=O)c1nc2c(c(C(F)(F)F)n1)CCc1ccccc1-2,IC50,[34],> 100 µM (not active)
same,IC50,[35],> 100 µM (not active)
same,IC50,[36],> 100 µM (not active)
OCCOCCn1c(C2CCCN2c2nc(-c3ccc(F)cc3)cs2)nc2cc(Cl)c(Cl)cc21 (stereo not drawn),CC50,[21],37.6 µM (active)
same,AC50,[37],6.11 µM (active)
CC(C)c1ccc(-n2c(-c3ccccc3)c[n+]3c2CCc2ccccc2-3)cc1,EC50,[27],9.52 µM (active)
same,EC50,[28],> 120 µM (not active)
same,EC50,[29],> 60 µM (not active)
same,EC50,[30],0.041 µM (active)
same,EC50,[31],11.7 µM (active)
same,EC50,[33],< 0.1 µM (active)
Cc1ccc(N2C(=O)Nc3ccc(Br)cc3C2(O)C(=O)NCCCN(C)C)cc1C (stereo not drawn),EC50,[11],> 50 µM (not active)
CC(C)(C)C(=O)Nc1nc2c(s1)COc1ccccc1-2,IC50,[14],> 69.5 µM (not active)
